# Experimental data taken from patent publication US8673548B2, “Genes and polypeptides relating to breast cancers” (Oncotherapy Science, Inc., priority 2006, dated 2014).
# Legend:
# Type in all cases: cell-based, human
# [1] = test system: CDK1; assay: immunoblotting of G2/M-arrested cells incubated with CDK1 inhibitor; conditions: T47D
# Description: To detect expression of PBK/TOPK (WT, T9A, KD, T9A/KD), p47, p97 or PP1α proteins, immunoblottings were performed according to previous report (Park et al., 2006). Briefly, cells were lysed in lysis buffer (50 mM Tris-HCl, pH 8.0/150 mM NaCl/0.5% NP-40) followed by homogenization and incubation on ice for 30 minutes, only soluble fractions were separated from cell debris by centrifugation. After SDS-PAGE (sodium dodecyl sulfate polyacrylamide gel electrophoresis), the proteins were blotted onto nitrocellulose membrane (GE Healthcare, Buckinghamshire, United Kingdom), incubated with the corresponding antibodies, and visualized using an ECL detection kit (GE Healthcare). To collect the mitotic cells, the present inventors employed a “mitotic shake-off” method as described previously (Dechat T et al., EMBO J. 17: 4887-902 (1998)). A protein-protein interaction was examined by immunoprecipitation after co-transfection with above described constructs of interest to COS-7 cells using the FuGene6 reagent (Roche) as described previously (Shimo A et al., Cancer Sci 98: 174-81 (2007)) except using an anti-6×His antibody (Santa Cruz Biotechnology) to precipitated p97/VCP-myc-6×His protein. After washing 5 times with lysis buffer, immunocomplexes were loaded on a SDS-PAGE gel and immunoblotted as described above.
# An active recombinant PBK/TOPK protein was purchased from Invitrogen (Carlsbad, Calif.), and recombinant proteins of Histone H3 and Protein Phosohatase 1-alpha (PP1α were from Upstate Biotechnology (Lake Placidy, N.Y.). Cyclin-dependent kinase-1 (CDK1 kinase) (cdc2/cyclin B1) and lambda protein phosphatase (λPPase) were from New England Biolabs (Ipswich, Mass.). The glutathione S-transferase (GST)-tagged PBK/TOPK (GST-PBK/TOPK) protein was expressed in Escherichia coli and purified with Glutathione Sepharose 4B beads (GE Heath care, Buckinghamshire, United Kingdom) according to the previous report (Lin et al., 2007). […]
# [2] = test system: PBK/TOPK; assay: western blot of PBK/TOPK phosphorylation after okadaic acid; conditions: T47D
# Description: Wild-type and kinase-dead PBK/TOPK proteins were exogenously expressed by transfection into T47D cell using pCAGGS-nHA expression vector. Whole cell lysates were harvested 48 h after the transfection. The cells were lysed in the cell lysis buffer as described above. The following procedures are the same as described above except that anti-HA rat high-affinity antibody (Roche) was used for the antibody reaction. […] The following procedures were also carried out as described above. Phosphorylated protein was confirmed by treatment with 1 U of lambda protein phosphatase (New England Biolabs, Ipswich, Mass.) at 30° C. for 2 h.
# [3] = test system: T47D cells; assay: FACS cell cycle analysis after nocodazole
# Description: For PBK/TOPK, the cell cycle of cultured T47D breast cancer cells were synchronized via the treatment with aphidicolin (Sigma-Aldrich) for 16 h, washing 5 times with PBS (−), and addition of fresh culture media to release from cell-cycle arrest. For 15 h (every 3 h) after releasing, cells were collected and fixed with 70% ethanol, and then kept at 4° C. before use. Cells were incubated with 10 mg/mL RNaseI in PBS (−) at 37° C. for 30 min and stained with 50 μg of propidium iodide at room temperature for 30 min. Cell suspensions at each time point were analyzed with FACscan (Becton Dickinson, Franklin Lakes, N.J.).
# To collect the G2/M arrested cells, 0.3 μg/mL of nocodazole (Sigma-Aldrich) was treated to culture media for the last 16 hours before collection.
# [4] = test system: PBK/TOPK; assay: western blot of PBK/TOPK after nocodazole; conditions: T47D; 6 to 18 h
# [5] = test system: A7322; assay: semi-quantitative RT-PCR of A7322 after siRNA vector transfection; conditions: BT-549 and BT-474 cells; compared with psiU6BX-Mock
# Description: Inventors established a vector-based RNAi (RNA interference) expression system using psiU6BX3.0 siRNA expression vector as described previously (Taniuchi K et al. Cancer Res., 65:105-112. 2005.). siRNA expression vectors against A7322 (psiU6BX3.0-A7322), F3374V1 (psiU6BX3.0-F3374V1), EGFP (psiU6BX3.0-EGFP), Scramble (psiU6BX3.0-SCR) and Mock (psiU6BX3.0-Mock) were prepared by cloning of double-stranded oligonucleotides into the BbsI site of the psiU6BX3.0 vector. The target sequences of synthetic oligonucleotides for siRNA were as follows;
# (§1) Human breast cancer cells-lines, BT-549 and BT-474 (for A7322) and T47D and HBC4 (for F3374), were plated onto 10-cm dishes (2×10^6 cells/dish) and transfected with 8 μg each of psiU6BX3.0-Mock (without insertion), psiU6BX3.0-A7322 (#2, #3 and a mismatch construct (m#3) including three-base substitutions in #3), psiU6BX3.0-F3374V1 (#1, and #4), psiU6BX3.0-EGFP, psiU6BX3.0-SCR using FuGENE6 reagent (Roche) as described above. Inventors selected the psiU6BX3.0-introduced BT-549, BT-474, T47D and HBC4, with medium containing 0.2 mg/ml or 1 mg/ml of neomycin (Geneticin, Gibco BRL, Carlsbad, Calif.), respectively. […] To evaluate an effect of siRNAs, total RNAs were extracted from the cells at 4-day incubation with neomycin, and then the knockdown effect of siRNAs was examined by a semi-quantitative RT-PCR using specific primer sets;
# [6] = test system: BT-549 and BT-474 cells; assay: colony-formation and MTT assays, A7322 siRNA
# Description: as §1
# Transfectants expressing siRNA were grown for 4 weeks in selective media containing neomycin, then fixed with 4% paraformaldehyde for 15 min before staining with Giemsa's solution (Merck, Whitehouse Station, N.J.) to assess colony number. To quantify cell viability, MTT assays were performed with cell counting kit-8 4 days after transfection according to manufacturer's recommendation (Wako, Osaka, Japan). Absorbance at 570 nm wavelength was measured with a Microplate Reader 550 (Bio-Rad). […]
# [7] = test system: F3374 protein; assay: western blot of F3374 protein after siAURKB; conditions: T47D cells; vs siEGFP
# Description: To detect the endogenous F3374 and AURKB proteins in breast cancer cell lines (HBC4, BT-549, HBC5, HBL100, HCC1937, MCF-7, MDA-MB-231, MDA-MB-453, SKBR3, and T47D, and ZR75-1) and human mammary gland epithelial cell (HMEC), cells were lysed in lysis buffer (50 mM Tris-HCl, pH 8.0/150 mM NaCl/0.5% NP-40) including 0.1% protease inhibitor cocktail III (Calbiochem, San Diego, Calif.). The amount of total protein was estimated by protein assay kit (Bio-Rad, Hercules, Calif.), and then proteins were mixed with SDS-sample buffer and boiled before loading at 10% SDS-PAGE gel. After electrophoresis, the proteins were blotted onto nitrocellulose membrane (GE Healthcare). After blocking with blocking solution (4% BlockAce; Dainippon Pharmaceutical. Co., Ltd, Osaka, Japan), membranes blotting proteins were incubated with anti-F3374 polyclonal antibody at 1:100 dilutions or anti-AURKB rabbit polyclonal antibody (abcam, Cambridge, UK) at 1:100 dilutions for detection of endogenous F3374 or AURKB protein. Finally the membrane was incubated with HRP conjugated-secondary antibody and protein-bands were visualized by ECL detection reagents (GE Healthcare). Beta-actin was examined to serve as a loading control. […]
# [8] = test system: F3374; assay: western blot of F3374 after siF3374 oligonucleotide; conditions: HBC4 cells
# Source text: (§2) Furthermore, the present inventors used siRNA oligonucleotides (Sigma Aldrich Japan KK, Tokyo, Japan) due to its high transfection efficiency to further verify the knockdown effects of F3374 and AURKB on cell morphology. The sequences targeting each gene were as follows:
# (§3) T47D or HBC4 cells (2.5×10^5 cells in 10 cm dish for FACS analysis) cells were transfected with those siRNAs using Lipofectamin RNAiMAX (Invitrogen) in Optimem (Invitrogen) medium according to the instructions of manufacture. Forty-eight hours after transfection, morphological changes of the HBC4 cells were examined by microscopy and by immunocytochemical staining analysis using Alexa Fluor 594 Phalloidin (Molecular Probe).
# [9] = test system: HBC4 cells; assay: microscopy of morphological changes after siF3374; conditions: vs siEGFP
# Source text: as §2, §3
molecule,measurement,setting,value
"CCn1cnc2c(Nc3cccc(Cl)c3)nc(N[C@@H]3CCCC[C@@H]3N)nc21 [CDK1 inhibitor, CGP74514A]",phosphorylation level of the Rb protein at Ser807 and 811,[1]; 0 to 4 hours,decreased phosphorylation level
same,phosphorylation of PP1α at Thr320,[1]; 0 to 4 hours,reduced phosphorylation
same,phosphorylation of PBK/TOPK induced by G2/M arrest,[1]; 0 to 4 hours after nocodazole 16 hours,diminished in time-dependent manner
"C=C1[C@@H](O)[C@@H]2O[C@]3(CC[C@H](/C=C/[C@@H](C)[C@@H]4CC(C)=C[C@@]5(O[C@H](C[C@@](C)(O)C(=O)O)CC[C@H]5O)O4)O3)CC[C@H]2O[C@@H]1[C@@H](O)C[C@H](C)[C@H]1O[C@@]2(CCCCO2)CC[C@H]1C [OA, okadaic acid]",phosphorylation of PBK/TOPK,[2]; 100 nM for 9 hours,induced
same,phosphorylation of PBK/TOPK,[2]; low concentration (less than 100 nM),not
COC(=O)Nc1nc2ccc(C(=O)c3cccs3)cc2[nH]1 [nocodazole],proportion of cells at the G2/M phase,[3]; 6 to 18 h,elevated
same,cells synchronized at G2/M phase,[3]; treatment for 16 hours,61-70%
same,intensity of high-molecular (phosphorylated) band of endogenous PBK/TOPK,[4],elevated in a time-dependent manner
"m#3: mismatch siRNA with 3-bp replacement in A7322 si-#3, 5′-AATATTCGATCTCTGCCACAC-3′ (SEQ ID NO: 36) (listed as DNA, chemistry not given here)",expression level of A7322,[5],no suppressive effect
same,growth of BT-549 and BT-474 cells,[6],no suppressive effect
"siAURKB: siRNA oligonucleotide 5′-AAGGUGAUGGAGAAUAGCAGU-3′ (SEQ ID NO: 66) targeting AURKB (listed as RNA, chemistry not given here)",phosphorylated F3374 protein,[7],significant decrease
same,total F3374 protein,[7],significant decrease
"siF3374: siRNA oligonucleotide 5′-ACUCCUACGUUCUCUAUUA-3′ (SEQ ID NO: 65) targeting F3374 (listed as RNA, chemistry not given here)",knockdown effect at the protein level (F3374),[8],significant knockdown effect
same,morphological alterations: cell size,[9],enlargement of the size of the cells
same,morphological alterations: cytokinesis,[9],appearance of the intercellular bridges between two separating-cells
